ChEMBL document CHEMBL3045254, “Molecular modeling of the Toxoplasma gondii adenosine kinase inhibitors” (Med Chem Res, 2012)

Molecular target: T1, Adenosine kinase (Toxoplasma gondii, UniProt Q9TVW2)
T1 sequence (Q9TVW2 whole entry): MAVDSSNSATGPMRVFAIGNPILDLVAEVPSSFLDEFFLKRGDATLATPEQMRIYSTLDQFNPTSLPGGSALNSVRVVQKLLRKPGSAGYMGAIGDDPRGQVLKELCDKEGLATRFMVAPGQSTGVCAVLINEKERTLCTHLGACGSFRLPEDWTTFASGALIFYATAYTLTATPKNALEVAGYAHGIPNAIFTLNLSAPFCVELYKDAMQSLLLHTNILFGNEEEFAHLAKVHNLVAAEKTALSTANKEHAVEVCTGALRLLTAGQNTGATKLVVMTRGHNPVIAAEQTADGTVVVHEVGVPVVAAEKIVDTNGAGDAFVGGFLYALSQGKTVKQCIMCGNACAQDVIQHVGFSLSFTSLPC
Experiment: Inhibition of Toxoplasma gondii adenosine kinase

Structure (SMILES) | IC50 (read-out: IC50) [µM] | IC50 (read-out: pIC50 (converted)) [µM] | Ki [µM]
OC[C@H]1O[C@@H](n2cnc3c(NCc4cccc(F)c4)ncnc32)[C@H](O)[C@@H]1O | 23.2 | – | –
OC[C@H]1O[C@@H](n2cnc3c(NCc4ccc(F)cc4)ncnc32)[C@H](O)[C@@H]1O | 20.6 | – | –
OC[C@H]1O[C@@H](n2cnc3c(NCc4ccc(Cl)cc4)ncnc32)[C@H](O)[C@@H]1O | 25.8 | – | –
COc1ccccc1CNc1ncnc2c1ncn2[C@@H]1O[C@H](CO)[C@@H](O)[C@H]1O | 8.7 | – | –
OC[C@H]1O[C@@H](n2cnc3c(NCc4ccc(C(F)(F)F)cc4)ncnc32)[C@H](O)[C@@H]1O | 22.9 | – | –
COc1ccc(CNc2ncnc3c2ncn3[C@@H]2O[C@H](CO)[C@@H](O)[C@H]2O)cc1 | 7.5 | 7.19 | –
OC[C@H]1O[C@@H](n2cnc3c(NCc4ccc(Cl)c(Cl)c4)ncnc32)[C@H](O)[C@@H]1O | 14.3 | – | –
COc1ccc(CNc2ncnc3c2ncn3[C@@H]2O[C@H](CO)[C@@H](O)[C@H]2O)c(OC)c1 | 8.7 | – | –
OC[C@H]1O[C@@H](n2cnc3c(NCc4ccc(F)cc4F)ncnc32)[C@H](O)[C@@H]1O | 8.2 | – | –
N#Cc1ccc(CNc2ncnc3c2ncn3[C@@H]2O[C@H](CO)[C@@H](O)[C@H]2O)c(Cl)c1 | 21.1 | 10.4 | –
COc1ccc(CNc2ncnc3c2ncn3[C@@H]2O[C@H](CO)[C@@H](O)[C@H]2O)c(F)c1 | 9.5 | – | –
CC(C)(C)c1ccc(CSc2ncnc3c2ncn3[C@@H]2O[C@H](CO)[C@@H](O)[C@H]2O)cc1 | 23.3 | – | 113
OC[C@H]1O[C@@H](n2cnc3c(SCc4ccccc4Cl)ncnc32)[C@H](O)[C@@H]1O | 6.7 | – | 1.4
Cc1ccc(CSc2ncnc3c2ncn3[C@@H]2O[C@H](CO)[C@@H](O)[C@H]2O)cc1 | 7.8 | – | 3.3
OC[C@H]1O[C@@H](n2cnc3c(NCc4ccccc4Cl)ncnc32)[C@H](O)[C@@H]1O | 10.6 | – | –
Cc1cccc(CNc2ncnc3c2ncn3[C@@H]2O[C@H](CO)[C@@H](O)[C@H]2O)c1 | 8.5 | – | –
Cc1ccc(CNc2ncnc3c2ncn3[C@@H]2O[C@H](CO)[C@@H](O)[C@H]2O)cc1 | 10.5 | – | –
OC[C@H]1O[C@@H](n2cnc3c(NCc4ccc(Cl)cc4Cl)ncnc32)[C@H](O)[C@@H]1O | 9.3 | – | –
OC[C@H]1O[C@@H](n2cnc3c(SCc4ccc(F)cc4)ncnc32)[C@H](O)[C@@H]1O | 10.3 | – | 1.2
OC[C@H]1O[C@@H](n2cnc3c(SCc4ccc(Br)cc4)ncnc32)[C@H](O)[C@@H]1O | 14.3 | – | 7.5
OC[C@H]1O[C@@H](n2cnc3c(SCc4ccc(OC(F)(F)F)cc4)ncnc32)[C@H](O)[C@@H]1O | 24.8 | – | 141

Structure (SMILES) | IC50 (read-out: IC50) [µM] | IC50 (read-out: pIC50 (converted)) [µM] | Ki [µM]
OC[C@H]1O[C@@H](n2cnc3c(NCc4ccccc4F)ncnc32)[C@H](O)[C@@H]1O | 37.8 | – | –
Cc1ccccc1CSc1ncnc2c1ncn2[C@@H]1O[C@H](CO)[C@@H](O)[C@H]1O | 7.7 | – | 1.5
OC[C@H]1O[C@@H](n2cnc3c(SCc4ccc(Cl)c(Cl)c4)ncnc32)[C@H](O)[C@@H]1O | 10.4 | 21.1 | 2.5
Cc1cccc(CSc2ncnc3c2ncn3[C@@H]2O[C@H](CO)[C@@H](O)[C@H]2O)c1 | 8.2 | – | 1.3
OC[C@H]1O[C@@H](n2cnc3c(SCc4cccc(C(F)(F)F)c4)ncnc32)[C@H](O)[C@@H]1O | 8.7 | – | 2.9
OC[C@H]1O[C@@H](n2cnc3c(SCc4c(F)cccc4Cl)ncnc32)[C@H](O)[C@@H]1O | 8.7 | – | 37.7
OC[C@H]1O[C@@H](n2cnc3c(SCc4ccccc4F)ncnc32)[C@H](O)[C@@H]1O | 8.2 | – | –
Cc1cc(C)c(CSc2ncnc3c2ncn3[C@@H]2O[C@H](CO)[C@@H](O)[C@H]2O)c(C)c1 | 31.1 | – | 150
OC[C@H]1O[C@@H](n2cnc3c(SCc4ccc(Cl)cc4)ncnc32)[C@H](O)[C@@H]1O | 8.11 | – | 2.1
COc1ccc(CSc2ncnc3c2ncn3[C@@H]2O[C@H](CO)[C@@H](O)[C@H]2O)cc1 | 3.5 | – | 2.6
OC[C@H]1O[C@@H](n2cnc3c(SCc4ccc(Cl)cc4Cl)ncnc32)[C@H](O)[C@@H]1O | 7.3 | – | 0.7
O=[N+]([O-])c1cccc(CSc2ncnc3c2ncn3[C@@H]2O[C@H](CO)[C@@H](O)[C@H]2O)c1 | 6.2 | – | 3
N#Cc1ccc(CSc2ncnc3c2ncn3[C@@H]2O[C@H](CO)[C@@H](O)[C@H]2O)cc1 | 4.3 | – | 0.9
OC[C@H]1O[C@@H](n2cnc3c(SCc4ccccc4)ncnc32)[C@H](O)[C@@H]1O [6-BENZYLTHIOINOSINE] | 9.3 | – | 2.4
OC[C@H]1O[C@@H](n2cnc3c(NCc4ccccc4)ncnc32)[C@H](O)[C@@H]1O [N6-BENZYLADENOSINE] | – | 794 | –
O=[N+]([O-])c1ccc(CSc2ncnc3c2ncn3[C@@H]2O[C@H](CO)[C@@H](O)[C@H]2O)cc1 [NITROBENZYLMERCAPTOPURINE RIBONUCLEOSIDE] | 12 | – | 1.1
O=[N+]([O-])c1ccccc1CNc1ncnc2c1ncn2[C@@H]1O[C@H](CO)[C@@H](O)[C@H]1O [O-NITRO-N6-BENZYLADENOSINE] | 15 | – | –
CC(=O)Oc1ccc(CSc2ncnc3c2ncn3[C@@H]2O[C@H](CO)[C@@H](O)[C@H]2O)cc1 [P-ACETOXY-6-BENZYLTHIOINOSINE] | 15 | – | 96.1
N#Cc1ccc(CNc2ncnc3c2ncn3[C@@H]2O[C@H](CO)[C@@H](O)[C@H]2O)cc1 [P-CYANO-N6-BENZYLADENOSINE] | 8.3 | – | –
CC(C)c1ccc(CNc2ncnc3c2ncn3[C@@H]2O[C@H](CO)[C@@H](O)[C@H]2O)cc1 [P-ISOPROPYL-N6-BENZYLADENOSINE] | 22 | – | –
C=Cc1ccc(CNc2ncnc3c2ncn3[C@@H]2O[C@H](CO)[C@@H](O)[C@H]2O)cc1 [P-VINYL-N6-BENZYLADENOSINE] | 26.2 | – | –
